The text below walks through data of patent publication EP4038059B1, “SUBSTITUTED CARBAZOLE COMPOUNDS” (Bristol-Myers Squibb Company, priority 2019, dated 2021).

Assay type in all cases: cell-based
One assay deals with T1, human TLR7 (Homo sapiens, UniProt Q9NYK1).
T1 construct: host or cells: HEK-Blue cells
T1 sequence (Q9NYK1 27-1049): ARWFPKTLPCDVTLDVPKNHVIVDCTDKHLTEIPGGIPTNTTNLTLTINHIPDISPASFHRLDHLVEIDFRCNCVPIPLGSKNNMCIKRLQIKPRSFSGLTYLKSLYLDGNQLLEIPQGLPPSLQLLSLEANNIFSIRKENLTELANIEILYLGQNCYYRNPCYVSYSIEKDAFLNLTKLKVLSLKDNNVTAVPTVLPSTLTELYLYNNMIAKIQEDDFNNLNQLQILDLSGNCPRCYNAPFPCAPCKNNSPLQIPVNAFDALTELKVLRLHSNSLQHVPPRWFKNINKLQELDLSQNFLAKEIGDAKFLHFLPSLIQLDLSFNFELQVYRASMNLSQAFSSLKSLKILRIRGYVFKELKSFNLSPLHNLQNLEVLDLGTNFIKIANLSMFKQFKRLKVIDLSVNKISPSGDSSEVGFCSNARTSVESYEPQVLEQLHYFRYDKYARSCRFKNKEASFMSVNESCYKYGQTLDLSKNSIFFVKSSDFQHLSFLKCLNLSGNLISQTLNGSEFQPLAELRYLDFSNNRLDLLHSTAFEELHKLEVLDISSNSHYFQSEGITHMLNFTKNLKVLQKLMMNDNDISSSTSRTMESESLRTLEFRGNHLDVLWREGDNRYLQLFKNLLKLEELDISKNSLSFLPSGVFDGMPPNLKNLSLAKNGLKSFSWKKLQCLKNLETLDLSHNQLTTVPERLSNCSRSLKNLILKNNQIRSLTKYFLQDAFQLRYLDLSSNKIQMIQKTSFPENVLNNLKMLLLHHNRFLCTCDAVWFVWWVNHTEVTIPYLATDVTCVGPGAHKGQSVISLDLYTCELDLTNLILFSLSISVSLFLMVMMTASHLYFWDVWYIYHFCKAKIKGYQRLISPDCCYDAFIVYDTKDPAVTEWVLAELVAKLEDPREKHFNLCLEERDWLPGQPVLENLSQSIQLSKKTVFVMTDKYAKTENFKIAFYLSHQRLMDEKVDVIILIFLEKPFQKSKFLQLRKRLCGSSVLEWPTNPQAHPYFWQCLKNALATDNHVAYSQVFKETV
As to the kind of experiment: TLR7 inhibition reporter assay (HEK-Blue SEAP). The settings on record: HEK-Blue cells overexpressing human TLR7, stimulated with gardiquimod 7.5 µM, 22 h incubation. How it is done:
(§1) HEK-Blue™-cells (Invivogen) overexpressing human TLR7, TLR8 or TLR9 receptors were used for screening inhibitors of these receptors using an inducible SEAP (secreted embryonic alkaline phosphatase) reporter gene under the control of the IFN-β minimal promoter fused to five NF-κB and AP-1-binding sites. Briefly, cells are seeded into Greiner 384 well plates (15000 cells per well for TLR7, 20,000 for TLR8 and 25,000 for TLR9) and then treated with test compounds in DMSO to yield a final dose response concentration range of 0.05 nM - 50 µM. After a 30 minute compound pre-treatment at room temperature, the cells are then stimulated with a TLR7 ligand (gardiquimod at a final concentration of 7.5 µM), TLR8 ligand (R848 at a final concentration of 15.9 µM) or TLR9 ligand (ODN2006 at a final concentration of 5 nM) to activate NF-κB and AP-1 which induce the production of SEAP. After a 22 h incubation at 37°C, 5% CO2, SEAP levels are determined with the addition of HEK-Blue™ Detection reagent (Invivogen), a cell culture medium that allows for detection of SEAP, according to manufacturer's specifications. The percent inhibition is determined as the % reduction in the HEK-Blue signal present in wells treated with agonist plus DMSO alone compared to wells treated with a known inhibitor.
(In general: In a reporter assay the amount or activity of a reporter protein is the signal.)

For the next assay, the target named is T2, human TLR8 (Homo sapiens, UniProt Q9NR97).
T2 construct: host or cells: HEK-Blue cells
T2 sequence (Q9NR97 27-1041): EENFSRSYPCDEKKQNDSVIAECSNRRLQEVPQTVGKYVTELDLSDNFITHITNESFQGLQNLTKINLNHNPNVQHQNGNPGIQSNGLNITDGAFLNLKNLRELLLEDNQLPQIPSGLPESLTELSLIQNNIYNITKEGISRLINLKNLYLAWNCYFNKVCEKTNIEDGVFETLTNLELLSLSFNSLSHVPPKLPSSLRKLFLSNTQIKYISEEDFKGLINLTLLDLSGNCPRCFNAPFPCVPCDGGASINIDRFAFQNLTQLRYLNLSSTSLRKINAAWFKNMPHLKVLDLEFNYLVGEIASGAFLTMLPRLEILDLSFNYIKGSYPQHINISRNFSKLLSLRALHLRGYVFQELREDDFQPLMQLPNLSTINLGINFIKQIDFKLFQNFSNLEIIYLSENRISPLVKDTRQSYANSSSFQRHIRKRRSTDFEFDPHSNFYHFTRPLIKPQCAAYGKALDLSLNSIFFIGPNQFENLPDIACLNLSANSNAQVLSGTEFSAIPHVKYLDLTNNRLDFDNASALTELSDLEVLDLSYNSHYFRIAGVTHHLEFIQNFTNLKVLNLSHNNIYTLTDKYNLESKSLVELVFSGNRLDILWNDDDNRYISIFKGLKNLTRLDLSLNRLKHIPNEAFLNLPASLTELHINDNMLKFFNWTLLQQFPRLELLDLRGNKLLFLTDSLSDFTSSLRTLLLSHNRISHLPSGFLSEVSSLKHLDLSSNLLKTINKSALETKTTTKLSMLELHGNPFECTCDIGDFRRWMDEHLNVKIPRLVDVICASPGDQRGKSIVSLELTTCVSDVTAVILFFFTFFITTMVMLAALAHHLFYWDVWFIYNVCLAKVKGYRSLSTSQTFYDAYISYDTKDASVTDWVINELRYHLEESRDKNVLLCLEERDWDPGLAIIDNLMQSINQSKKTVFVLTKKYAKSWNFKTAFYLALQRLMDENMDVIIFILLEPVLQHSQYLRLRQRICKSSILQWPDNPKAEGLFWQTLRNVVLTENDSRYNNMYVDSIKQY
As to the kind of experiment: TLR8 inhibition reporter assay (HEK-Blue SEAP). As to conditions: HEK-Blue cells overexpressing human TLR8, stimulated with R848 15.9 µM, 22 h incubation. Here is the method:
as §1

In the next assay the target is T3, human TLR9 (Homo sapiens, UniProt Q9NR96).
T3 construct: host or cells: HEK-Blue cells
T3 sequence (Q9NR96 26-1032): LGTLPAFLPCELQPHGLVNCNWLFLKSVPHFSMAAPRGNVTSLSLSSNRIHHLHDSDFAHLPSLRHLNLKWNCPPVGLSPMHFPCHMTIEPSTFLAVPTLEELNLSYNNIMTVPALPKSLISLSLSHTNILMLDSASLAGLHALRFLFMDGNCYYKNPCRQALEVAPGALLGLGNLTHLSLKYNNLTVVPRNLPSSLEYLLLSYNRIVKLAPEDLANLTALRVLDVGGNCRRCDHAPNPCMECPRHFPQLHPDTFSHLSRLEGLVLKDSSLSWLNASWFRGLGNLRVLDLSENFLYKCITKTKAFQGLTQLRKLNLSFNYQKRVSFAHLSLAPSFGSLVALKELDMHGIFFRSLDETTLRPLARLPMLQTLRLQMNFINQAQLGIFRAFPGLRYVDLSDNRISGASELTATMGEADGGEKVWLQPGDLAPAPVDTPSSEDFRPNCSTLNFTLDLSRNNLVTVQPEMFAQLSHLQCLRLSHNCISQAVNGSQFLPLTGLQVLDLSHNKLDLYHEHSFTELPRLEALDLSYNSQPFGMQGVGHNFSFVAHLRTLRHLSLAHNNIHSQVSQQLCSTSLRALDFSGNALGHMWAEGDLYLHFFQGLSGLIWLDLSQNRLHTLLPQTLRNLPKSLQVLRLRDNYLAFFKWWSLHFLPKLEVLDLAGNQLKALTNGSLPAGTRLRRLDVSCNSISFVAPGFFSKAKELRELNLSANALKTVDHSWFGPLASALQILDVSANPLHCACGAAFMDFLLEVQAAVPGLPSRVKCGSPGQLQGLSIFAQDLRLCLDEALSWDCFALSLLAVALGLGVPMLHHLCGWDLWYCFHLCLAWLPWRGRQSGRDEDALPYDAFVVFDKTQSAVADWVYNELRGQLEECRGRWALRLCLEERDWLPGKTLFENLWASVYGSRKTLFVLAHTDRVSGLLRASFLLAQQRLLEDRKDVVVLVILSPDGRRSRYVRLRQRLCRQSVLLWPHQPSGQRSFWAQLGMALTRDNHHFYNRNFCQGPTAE
The assay can be described thus: TLR9 inhibition reporter assay (HEK-Blue SEAP). As to conditions: HEK-Blue cells overexpressing human TLR9, stimulated with ODN2006 5 nM, 22 h incubation. Here is the method: as §1

pIC50: −log10 of the molar value.

Usually pIC50 stands for −log10 of the IC50, conventionally taken in molar units.

Consider `COc1cc(-c2cc3[nH]c4ccc(C5CNC5)cc4c3c(C)c2C)cn2ncnc12` [Example 29, 6-(azetidin-3-yl)-2-(8-methoxy-[1,2,4]triazolo[1,5-a]pyridin-6-yl)-3,4-dimethyl-9H-carbazole], for which the pIC50 was 8.51 at human TLR7, 9.00 against human TLR8 and 6.64 against human TLR9.
As to `COc1cc(-c2cc3[nH]c4ccc(C5CN(CCS(C)(=O)=O)C5)cc4c3c(C)c2C)cn2ncnc12` [Example 30, 2-(8-methoxy-[1,2,4]triazolo[1,5-a]pyridin-6-yl)-3,4-dimethyl-6-(1-(2-(methylsulfonyl)ethyl)azetidin-3-yl)-9H-carbazole], the pIC50 on human TLR7 was 8.26; on human TLR8 it was 9.00; at human TLR9 it was 6.09.
For `COc1cc(-c2cc3[nH]c4ccc(C5CCCN(CC(C)(C)O)C5)cc4c3c(C)c2C)cn2ncnc12` (stereo not drawn) [Example 31], the figures for the pIC50 against human TLR7, on human TLR8 and at human TLR9 were 8.09, 8.92 and 6.23, respectively.
Taken in the same sequence, the figures for `COc1cc(-c2cc3[nH]c4ccc(C5CCCN(CCS(C)(=O)=O)C5)cc4c3c(C)c2C)cn2ncnc12` (stereo not drawn) [Example 32] were 8.03, 8.70 and 6.10.
Taken in the same sequence, the figures for `COc1cc(-c2cc3[nH]c4ccc(C5CCCN(C6COC6)C5)cc4c3c(C)c2C)cn2ncnc12` (stereo not drawn) [Example 33] were 7.81, 8.66 and 5.91.
As for `COc1cc(-c2cc3[nH]c4ccc(C5CCCN(CC#N)C5)cc4c3c(C)c2C)cn2ncnc12` (stereo not drawn) [Example 34], the pIC50 is 8.89 at human TLR7, 8.60 against human TLR8 and 6.49 on human TLR9.
Consider `COc1cc(-c2cc3[nH]c4ccc(C5CN(C(=O)CN(C)C)C5)cc4c3c(C)c2C)cn2ncnc12` [Example 35], for which the figures for the pIC50 against human TLR7, at human TLR8 and against human TLR9 were 8.35, 8.48 and 6.07, respectively.
Take `COc1cc(-c2cc3[nH]c4ccc(C5CN(C6COC6)C5)cc4c3c(C)c2C)cn2ncnc12` [Example 36]: the figures for the pIC50 at human TLR7, against human TLR8 and on human TLR9 were 8.25, 8.74 and 6.06, respectively.
As to `COc1cc(-c2cc3[nH]c4ccc(C5CN(CC(C)(C)O)C5)cc4c3c(C)c2C)cn2ncnc12` [Example 38], the figures for the pIC50 against human TLR7, on human TLR8 and against human TLR9 were 8.60, 9.40 and 6.29, respectively.
Taken in the same sequence, the figures for `COc1cc(-c2cc3[nH]c4ccc(C5CN(CC#N)C5)cc4c3c(C)c2C)cn2ncnc12` [Example 39] were 7.96, 8.40 and 5.91.
